This passage reports IC50 results from patent publication US11603359B2, “Benzothiadiazepine compounds and their use as bile acid modulators” (Albireo AB, priority 2019, dated 2023).

In one test the target is T1, human LBAT (Homo sapiens, UniProt Q14973).
T1 construct: expressed in transfected cells; Geneticin-selected LBAT-overexpressing cells
T1 sequence (Q14973 1-349): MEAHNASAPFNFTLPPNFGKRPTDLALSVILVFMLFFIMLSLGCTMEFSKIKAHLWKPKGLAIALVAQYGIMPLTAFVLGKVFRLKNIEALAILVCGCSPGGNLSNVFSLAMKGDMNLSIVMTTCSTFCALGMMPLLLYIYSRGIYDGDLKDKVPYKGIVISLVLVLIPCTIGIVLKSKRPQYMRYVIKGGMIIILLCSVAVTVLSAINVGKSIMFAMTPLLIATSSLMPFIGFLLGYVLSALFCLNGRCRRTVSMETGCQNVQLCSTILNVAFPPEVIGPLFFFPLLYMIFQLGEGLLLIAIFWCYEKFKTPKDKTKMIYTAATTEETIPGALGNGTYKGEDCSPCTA
Kind of test: LBAT (h/m) assay, human LBAT-overexpressing cells, 3H-taurocholic acid uptake. It is filed as cell-based. The settings on record: 0.3 μM 3H-taurocholic acid + 7.5 μM cold taurocholic acid, 20 minutes, read-out: hLBAT IC50. As to the method: 20,000 cells (Human or Mouse LBAT-overexpressing cells) were seeded in 96-wells plate (Corning CLS3809) in 100 μL MEM-alpha medium (Gibco 12571-063) supplemented with 10% FBS (Gibco 10438026) containing Geneticin (Gibco 10131-027) (1 mg/mL) and incubated at 37° C. in 5% CO2 for 24 hours. After incubation, media was decanted from the wells and cells were washed two times with 300 μL of basal MEM-alpha medium (FBS-free). After decanting basal MEM-alpha medium each time, plates were tapped against paper towel to ensure maximum removal of residual media.
For human LBAT, incubation mix was prepared by adding test inhibitor dilutions (3-fold serial dilution in DMSO (Sigma D2650), 10 points) in MEM-alpha (without FBS) containing 0.3 μM 3H-taurocholic acid (ARC ART-1368) and 7.5 μM cold taurocholic acid (Sigma T4009) (maintaining 0.2% final DMSO concentration). For mouse LBAT, incubation mix was prepared by adding test inhibitor dilutions (3-fold serial dilution in DMSO, 10 points) in MEM-alpha (without FBS) containing 0.3 μM 3H-taurocholic acid and 25 μM cold taurocholic acid maintaining 0.2% final DMSO concentration).
50 μL of incubation mix containing test inhibitors was then added to the wells (in duplicate) and the plates were incubated for 20 minutes in a CO2 incubator at 37° C. After incubation, the reaction was stopped by keeping the plates on ice water mix for 2-3 minutes and then the incubation mix was aspirated completely from the wells. The wells were washed two times with 250 μL of chilled unlabelled 1 mM taurocholic acid dissolved in HEPES (Gibco 15630080)-buffered (10 mM) HBSS (Gibco 14175079) (pH 7.4). The plates were tapped against a paper towel after every wash to ensure maximum removal of blocking buffer.
100 μL of MicroScint-20 (PerkinElmer 6013621) was added to the wells and kept overnight at room temperature before reading the plates in TopCount NXT™ Microplate Scintillation and Luminescence Counter from PerkinElmer under 3H Test protocol (set at 120 seconds reading time per well, with normal plate orientation).
(§1) All test compounds were provided in powder form at room temperature. 10 mM DMSO stocks of the test compounds were prepared, aliquoted and stored at −20° C. From the 10 mM DMSO stock of the compounds, a 3-fold serial dilution in DMSO was prepared to get a total of 10 dilutions of the test compounds. 0.5 μL of this dilution in DMSO was added to 250 μL of FBS-free basal media containing 3H-taurocholic acid and cold taurocholic acid to prepare the incubation mixture.

Another test concerns the target T2, human IBAT (Homo sapiens, UniProt Q12908).
T2 construct: expressed in transfected cells; Puromycin-selected IBAT-overexpressing cells
T2 sequence (Q12908 1-348): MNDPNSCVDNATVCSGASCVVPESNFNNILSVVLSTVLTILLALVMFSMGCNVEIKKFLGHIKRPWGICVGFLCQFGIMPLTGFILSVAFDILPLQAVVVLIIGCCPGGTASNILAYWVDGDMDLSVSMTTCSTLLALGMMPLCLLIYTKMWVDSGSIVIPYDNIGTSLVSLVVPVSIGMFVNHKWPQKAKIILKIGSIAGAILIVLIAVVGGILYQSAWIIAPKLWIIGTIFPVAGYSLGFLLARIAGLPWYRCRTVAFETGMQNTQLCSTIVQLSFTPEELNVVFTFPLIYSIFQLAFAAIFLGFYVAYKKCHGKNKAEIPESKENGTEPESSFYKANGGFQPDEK
Kind of test: IBAT (h/m) assay, human IBAT-overexpressing cells, 3H-taurocholic acid uptake. The class given is cell-based. The settings on record: 0.25 μM 3H-taurocholic acid + 5 μM cold taurocholic acid, 20 minutes, read-out: hIBAT IC50. As to the method:
10,000 cells (Human or Mouse IBAT-overexpressing cells) were seeded in 96-wells plate (Corning CLS3809) in 200 μL MEM-alpha medium (Gibco 12571-063) supplemented with 10% FBS (Gibco 10438026) containing Puromycin (Gibco A1113803) (10 μg/mL) and incubated at 37° C. in 5% CO2 for 48 hours. After incubation, media was decanted from the wells and cells were washed two times with 300 μL of basal MEM-alpha medium (FBS-free). After decanting basal MEM-alpha medium each time, plates were tapped against paper towel to ensure maximum removal of residual media. Test inhibitor dilutions (highest test concentration being 10 μM, 3-fold serial dilution, 10 points) prepared in DMSO (Sigma D2650) were added in incubation mix (maintaining 0.2% final DMSO concentration) containing 0.25 μM 3H-taurocholic acid (ARC ART-1368) and 5 μM of cold taurocholic acid (Sigma T4009). 50 μL of incubation mix containing test inhibitors was then added to the wells (in duplicate) and the plates were incubated for 20 minutes in a CO2 incubator at 37° C. After incubation, the reaction was stopped by keeping the plates on ice water mix for 2-3 minutes and then the incubation mix was aspirated completely from the wells. The wells were washed two times with 250 μL of chilled unlabelled 1 mM taurocholic acid dissolved in HEPES (Gibco 15630080)-buffered (10 mM) HBSS (Gibco 14175079) (pH 7.4). The plates were tapped against a paper towel after every wash to ensure maximum removal of blocking buffer.
100 μL of MicroScint-20 (PerkinElmer 6013621) was added to the wells and kept overnight at room temperature before reading the plates in TopCount NXT™ Microplate Scintillation and Luminescence Counter from PerkinElmer under 3H Test protocol (set at 120 seconds reading time per well).
as §1

The structures appear in SMILES notation.

With `CCCCC1(CC)CN(c2ccccc2)c2cc(N(C)C)c(OCCC(=O)O)cc2S(=O)(=O)N1` (single isomer, unassigned) [Example 12, 3-((3-butyl-7-(dimethylamino)-3-ethyl-1,1-dioxido-5-phenyl-2,3,4,5-tetrahydro-1,2,5-benzothiadiazepin-8-yl)oxy)propanoic acid], the IC50 at human LBAT was determined as 2220 nM; at human IBAT it was 3 nM.
The corresponding values for `CCCCC1(CC)CN(c2ccccc2)c2cc(SC)c(OCCC(=O)O)cc2S(=O)(=O)N1` (single isomer, unassigned) [Example 4, 3-((3-butyl-3-ethyl-7-(methylthio)-1,1-dioxido-5-phenyl-2,3,4,5-tetrahydro-1,2,5-benzothiadiazepin-8-yl)oxy)propanoic acid] are 3650 nM and 2 nM.
Taken in the same sequence, the figures for `CCCCC1(CCCC)CN(c2ccccc2)c2cc(SC)c(OCC(O)C(=O)O)cc2S(=O)(=O)N1` (racemic) [Example 5, 3-((3,3-dibutyl-7-(methylthio)-1,1-dioxido-5-phenyl-2,3,4,5-tetrahydro-1,2,5-benzothiadiazepin-8-yl)oxy)-2-hydroxypropanoic acid] were 1880 nM and 5 nM.
The corresponding values for `CCCCC1(CC)CN(c2ccccc2)c2cc(N(C)C)c(OCCC(=O)O)cc2S(=O)(=O)N1` (racemic) [Example 11, 3-((3-Butyl-7-(dimethylamino)-3-ethyl-1,1-dioxido-5-phenyl-2,3,4,5-tetrahydro-1,2,5-benzothiadiazepin-8-yl)oxy)propanoic acid] are 1170 nM and 3 nM.
`CCCCC1(CCCC)CN(c2ccc(O)cc2)c2cc(SC)c(OCCC(=O)O)cc2S(=O)(=O)N1` [Example 10, 3-((3,3-dibutyl-5-(4-hydroxyphenyl)-7-(methylthio)-1,1-dioxido-2,3,4,5-tetrahydro-1,2,5-benzothiadiazepin-8-yl)oxy)propanoic acid]: the concentration for half-maximal inhibition (IC50) at human LBAT came out at 7200 nM; at human IBAT, 2 nM.
Taken in the same sequence, the figures for `CCCCC1(CCCC)CN(c2ccccc2)c2cc(SC)c(OCCC(=O)O)cc2S(=O)(=O)N1` [Example 1, 3-((3,3-Dibutyl-7-(methylthio)-1,1-dioxido-5-phenyl-2,3,4,5-tetrahydro-1,2,5-benzothiadiazepin-8-yl)oxy)propanoic acid] were 2910 nM and 7 nM.
Taken in the same sequence, the figures for `CCCCC1(CCCC)CN(c2ccccc2)c2cc(SC)c(OCC(O)C(=O)O)cc2S(=O)(=O)N1` (single isomer, unassigned) [Example 7, 3-((3,3-dibutyl-7-(methylthio)-1,1-dioxido-5-phenyl-2,3,4,5-tetrahydro-1,2,5-benzothiadiazepin-8-yl)oxy)-2-hydroxypropanoic acid] were 2220 nM and 2 nM.
Taken in the same sequence, the figures for `CCCCC1(CCCC)CN(c2ccccc2)c2cc(Cl)c(OCCC(=O)O)cc2S(=O)(=O)N1` [Example 9, 3-((3,3-dibutyl-7-chloro-1,1-dioxido-5-phenyl-2,3,4,5-tetrahydro-1,2,5-benzothiadiazepin-8-yl)oxy)propanoic acid] were 1620 nM and 21 nM.
As to `CCCCC1(CCCC)CN(c2ccccc2)c2cc(SC)c(OC(C)CC(=O)O)cc2S(=O)(=O)N1` (stereo not drawn) [Example 8, 3-((3,3-Dibutyl-7-(methylthio)-1,1-dioxido-5-phenyl-2,3,4,5-tetrahydro-1,2,5-benzothiadiazepin-8-yl)oxy)butanoic acid], the IC50 at human LBAT was 2630 nM; on human IBAT, 12 nM.
